Reference: US8124654B2, “Derivatives of hypoestoxide and related compounds” (Immune Modulation, Inc., priority 2008, dated 2012)

Assays:
B16F1 melanocytes = experiment: Inhibition of lung colonization of B16F1 melanocytes in mice; assay type: in vivo, C57BL/6 Mice; conditions: 5 mg/Kg oral once daily for 10 days; lungs counted on day 16; versus vehicle control
Procedure: 1×10^5 melanoma cells were injected intravenously into the lateral tail vein of each of 30 mice. Before treatment, mice were randomized into six groups of 5 mice per group. Treatment began one hour after intravenous inoculation of the tumor cells. Drugs, at 5 mg/Kg were administered via oral route, once daily for 10 days. Treatment was stopped on day 10. On day 16, lungs were removed and fixed in 10% formaldehyde. The surface melanoma colonies were counted for each lung and the means were established for each group. The mean for each group was used to calculate % inhibition based on the vehicle control.

[1] = tested on: P. falciparum CQ-Resistant (W2 MR4); experiment: In vitro malaria parasite development, 3H-hypoxanthine uptake, CQ-resistant strain; assay type: cell-based; conditions: for IC50: 48 h exposure from ring stage, 3H-hypoxanthine uptake, geometric mean
Procedure: (§1) Parasite cultures were exposed to different concentrations of Formula IV or hypoestoxide (from 100× stocks in DMSO) for 48 h, beginning at the ring stage. Concentrations yielding 50% inhibition (IC50) were extrapolated from plots of mean percent negative control activity over inhibitor concentration as measured by the uptake of ^3H-hypoxanthine. Data was analyzed after logarithmic transformation and expressed as the geometric mean IC50 and 95% confidence intervals.
(§2) Other anti-parasitic agents such as sesquiterpene artemisinin, chloroquine, mixtures thereof, and the like, can also be administered in appropriate doses along with the compounds of formula I-IV.

[2] = tested on: P. falciparum CQ-Sensitive (3D7); experiment: In vitro malaria parasite development, 3H-hypoxanthine uptake, CQ-sensitive strain; assay type: cell-based; conditions: for IC50: 48 h exposure from ring stage, 3H-hypoxanthine uptake, geometric mean
Procedure: as §1, §2

[3] = tested on: P. berghei berghei (EI strain); experiment: In vivo effect in malaria-infected mice (blood parasitemia); conditions: female mice, 5 mg/Kg oral once daily for 3 days; Giemsa-stained blood smears
Procedure: Five female mice per group were infected i.p. with 1×10^5P. berghei berghei (EI strain) parasitized RBCs and 3 days later, oral therapy was started at 5 mg/Kg once daily with either Formula IV or Chloroquine for 3 days. […], blood parasitemia was evaluated on each mouse on Giemsa-stained smears.

IL-6 production = IL-6 production in LPS-stimulated human peripheral blood macrophages (ELISA); assay type: cell-based
Source text: At the end of 24-hour culture, supernatants were removed and tested for the presence of IL-6 by enzymne-linked immunosorbent assay.

TNF-α production = experiment: Inhibition of TNF-α production; assay type: cell-based
IL-1β production = experiment: Inhibition of IL-1β production; assay type: cell-based
IL-12 production = experiment: Inhibition of IL-12 production; assay type: cell-based
[4] = ratio of IC50 versus hypoestoxide

Row | Compound | Inhibition (%) of lung melanoma colonies (B16F1 melanocytes) [%] | IC50 [1] [µM] | times more active than the parent hypoestoxide against the CQ-resistant strain [1, 4] [times] | IC50 [2] [µM] | times more active than hypoestoxide against the CQ-sensitive strain [2, 4] | Reduction of Parasitemia (%) [3] [%] | Inhibition (%) of IL-6 production (IL-6 production; 10 μM, LPS 3 μg/ml, 24 h) [%] | IL-6 (IL-6 production; 10 μM, LPS 3 μg/ml, 24 h culture supernatant, LPS alone 1200 pg/ml) [pg/mL] | inhibition of IL-6 (in words) (IL-6 production; statement of the summary, no conditions given) | inhibition of TNF-α production (in words) (TNF-α production) | inhibition of IL-1β production (in words) (IL-1β production) | inhibition of IL-12 production (in words) (IL-12 production)
1 | 12,18-dihydrohypoestoxide [Formula IV] | 65 | 0.12 | 88 | 1.4 | about 7 times | 92 |  |  |  |  |  | 
2 | CCN(CC)CCCC(C)Nc1ccnc2cc(Cl)ccc12 (stereo not shown) [Chloroquine] |  |  |  |  |  | 96 |  |  |  |  |  | 
3 | C=C1C(=O)C[C@H]2C[C@@H]3O[C@@]3(C)CC[C@@H]3O[C@@]3(C)C[C@@H](OC(C)=O)[C@H]1C2(C)C [Hypoestoxide, hypoestoxide] | 70 | 10.6 |  | 10 |  |  | 96 | 50 | inhibits | inhibits | inhibits | inhibits
